The record followed here is ChEMBL document CHEMBL5465560, “Selectivity Literature for EUbOPEN Chemogenomic Library” (2024).

For experiment [1], the target named is Phosphatidylinositol 4-kinase beta (Homo sapiens, UniProt Q9UBF8). Description: Selectivity interaction (Enzyme panel (AstraZeneca, AlphaScreen, functional assay)) EUB0000621a PI4KB. On the technique in general: Alpha assays give light when donor and acceptor beads are brought close together.
The target of experiment [2] is Calcium/calmodulin-dependent protein kinase kinase 1 (Homo sapiens) (UniProt Q8N5S9). The note with it: at 10 µM.
Calcium/calmodulin-dependent protein kinase kinase 1 (Homo sapiens), sequence (Q8N5S9 whole entry, looked up): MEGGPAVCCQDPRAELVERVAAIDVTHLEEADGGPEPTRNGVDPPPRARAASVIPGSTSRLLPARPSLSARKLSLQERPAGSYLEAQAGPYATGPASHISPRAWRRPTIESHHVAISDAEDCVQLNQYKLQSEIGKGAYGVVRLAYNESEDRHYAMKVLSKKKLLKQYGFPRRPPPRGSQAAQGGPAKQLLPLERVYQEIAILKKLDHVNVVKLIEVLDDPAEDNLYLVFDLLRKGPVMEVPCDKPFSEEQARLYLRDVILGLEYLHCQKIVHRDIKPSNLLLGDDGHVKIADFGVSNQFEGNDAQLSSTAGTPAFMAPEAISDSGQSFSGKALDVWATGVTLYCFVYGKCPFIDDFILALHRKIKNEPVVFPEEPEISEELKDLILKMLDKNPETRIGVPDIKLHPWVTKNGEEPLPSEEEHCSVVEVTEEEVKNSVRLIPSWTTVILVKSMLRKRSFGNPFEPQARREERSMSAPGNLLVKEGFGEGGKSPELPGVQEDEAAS
Experiment [3] addresses Bone morphogenetic protein receptor type-1A (Homo sapiens, UniProt P36894). The note with it: at 10 µM.
The target in experiment [4] is RAC-alpha serine/threonine-protein kinase (Homo sapiens, UniProt P31749). As to the kind of experiment: Selectivity interaction (KinomeScan (DiscoverX)) EUB0001049a AKT1. The note with it: at 1 µM.
RAC-alpha serine/threonine-protein kinase, sequence (P31749 whole entry): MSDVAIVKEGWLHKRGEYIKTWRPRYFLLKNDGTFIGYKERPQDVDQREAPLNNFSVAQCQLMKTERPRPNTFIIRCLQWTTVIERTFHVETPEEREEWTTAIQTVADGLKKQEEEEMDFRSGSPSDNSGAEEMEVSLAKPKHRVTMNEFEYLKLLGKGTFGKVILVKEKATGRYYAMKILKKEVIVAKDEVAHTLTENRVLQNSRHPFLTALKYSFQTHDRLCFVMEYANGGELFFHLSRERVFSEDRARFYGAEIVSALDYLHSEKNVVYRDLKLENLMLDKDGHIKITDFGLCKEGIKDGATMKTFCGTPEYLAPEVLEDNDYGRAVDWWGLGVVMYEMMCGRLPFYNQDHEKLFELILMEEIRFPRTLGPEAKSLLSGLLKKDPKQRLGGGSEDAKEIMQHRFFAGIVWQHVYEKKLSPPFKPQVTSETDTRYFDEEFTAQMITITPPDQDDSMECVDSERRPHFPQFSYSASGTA
Experiment [5] concerns the target T1, Calcium/calmodulin-dependent protein kinase type IV (Homo sapiens) (UniProt Q16566).
T1 sequence (whole entry): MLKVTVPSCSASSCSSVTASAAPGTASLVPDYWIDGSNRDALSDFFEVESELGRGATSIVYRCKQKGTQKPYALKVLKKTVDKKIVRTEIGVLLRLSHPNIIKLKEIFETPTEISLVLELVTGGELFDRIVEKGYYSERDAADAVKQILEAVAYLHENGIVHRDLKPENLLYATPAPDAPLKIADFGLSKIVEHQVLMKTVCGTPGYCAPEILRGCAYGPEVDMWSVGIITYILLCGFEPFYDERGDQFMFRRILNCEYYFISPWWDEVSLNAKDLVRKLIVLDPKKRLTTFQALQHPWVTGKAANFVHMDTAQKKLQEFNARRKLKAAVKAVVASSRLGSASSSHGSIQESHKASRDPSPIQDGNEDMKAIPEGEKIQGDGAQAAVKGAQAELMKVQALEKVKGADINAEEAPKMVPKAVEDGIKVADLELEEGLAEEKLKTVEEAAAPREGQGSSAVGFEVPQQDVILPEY
Description: Selectivity interaction (KinomeScan (DiscoverX)) EUB0001049a CAMK4. Particulars: at 1 µM.

Experiment [6] deals with Calcium/calmodulin-dependent protein kinase type 1 (Homo sapiens) (UniProt Q14012). Description: Selectivity interaction (KinomeScan (DiscoverX)) EUB0000655a CAMK1. Particulars: at 10 µM.
Calcium/calmodulin-dependent protein kinase type 1 (Homo sapiens), sequence (Q14012 whole entry, looked up): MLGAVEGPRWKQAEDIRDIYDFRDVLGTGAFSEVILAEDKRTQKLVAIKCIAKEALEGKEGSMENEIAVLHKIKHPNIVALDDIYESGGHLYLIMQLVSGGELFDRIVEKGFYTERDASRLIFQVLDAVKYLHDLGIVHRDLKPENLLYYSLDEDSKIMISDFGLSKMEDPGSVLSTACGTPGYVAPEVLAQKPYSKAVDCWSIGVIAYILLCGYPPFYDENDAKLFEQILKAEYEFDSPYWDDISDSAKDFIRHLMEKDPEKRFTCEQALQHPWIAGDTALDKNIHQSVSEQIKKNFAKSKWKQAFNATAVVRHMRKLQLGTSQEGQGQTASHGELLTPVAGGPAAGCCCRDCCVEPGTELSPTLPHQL
Experiment [7] concerns the target Protein polybromo-1 (Homo sapiens) (UniProt Q86U86). Description: Selectivity interaction (Bromodomain panel (DSF asssay)) EUB0000270b PBRM1.
In experiment [8] the target is CDK3/Cyclin E (Homo sapiens) (UniProt P24864+Q00526). Description: Selectivity interaction (LanthaScreen Eu Kinase Binding Assay) EUB0001632a CDK3. It is filed as protein-complex assay. Particulars: at 10 µM. A general note: TR-FRET usually uses a lanthanide donor and a delayed reading to cut background.
Experiment [9] has as its target Cyclin-dependent kinase 5/CDK5 activator 1 (Homo sapiens) (UniProt Q00535+Q15078). As to the kind of experiment: Selectivity interaction (Kinase panel (Z-LYTE Assay)) EUB0001632a CDK5. In kind it is protein-complex assay. The note with it: at 10 µM.
In experiment [10] the target is Dual specificity testis-specific protein kinase 1 (Homo sapiens) (UniProt Q15569). Description: Selectivity interaction (KinomeScan (DiscoverX)) EUB0000607a TESK1. The note with it: at 10 µM.
Dual specificity testis-specific protein kinase 1 (Homo sapiens), sequence (Q15569 whole entry, looked up): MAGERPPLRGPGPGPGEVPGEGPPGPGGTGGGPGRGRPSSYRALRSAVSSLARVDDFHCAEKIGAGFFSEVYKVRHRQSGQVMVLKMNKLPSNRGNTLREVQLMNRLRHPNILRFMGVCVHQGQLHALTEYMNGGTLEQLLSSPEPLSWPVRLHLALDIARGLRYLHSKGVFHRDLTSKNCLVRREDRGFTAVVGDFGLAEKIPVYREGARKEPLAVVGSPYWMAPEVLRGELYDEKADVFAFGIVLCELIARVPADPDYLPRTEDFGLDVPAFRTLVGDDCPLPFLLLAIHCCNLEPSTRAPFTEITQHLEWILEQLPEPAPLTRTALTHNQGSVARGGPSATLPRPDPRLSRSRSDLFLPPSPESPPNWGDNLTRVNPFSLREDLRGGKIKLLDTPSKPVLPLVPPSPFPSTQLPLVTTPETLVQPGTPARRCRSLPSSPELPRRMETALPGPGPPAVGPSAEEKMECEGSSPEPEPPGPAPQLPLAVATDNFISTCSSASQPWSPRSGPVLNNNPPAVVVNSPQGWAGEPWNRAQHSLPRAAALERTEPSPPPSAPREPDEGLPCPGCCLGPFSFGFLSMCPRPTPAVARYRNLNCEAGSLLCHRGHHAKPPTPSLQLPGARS
The target in experiment [11] is T2, Mitogen-activated protein kinase 13 (Homo sapiens) (UniProt O15264).
T2 sequence (whole entry): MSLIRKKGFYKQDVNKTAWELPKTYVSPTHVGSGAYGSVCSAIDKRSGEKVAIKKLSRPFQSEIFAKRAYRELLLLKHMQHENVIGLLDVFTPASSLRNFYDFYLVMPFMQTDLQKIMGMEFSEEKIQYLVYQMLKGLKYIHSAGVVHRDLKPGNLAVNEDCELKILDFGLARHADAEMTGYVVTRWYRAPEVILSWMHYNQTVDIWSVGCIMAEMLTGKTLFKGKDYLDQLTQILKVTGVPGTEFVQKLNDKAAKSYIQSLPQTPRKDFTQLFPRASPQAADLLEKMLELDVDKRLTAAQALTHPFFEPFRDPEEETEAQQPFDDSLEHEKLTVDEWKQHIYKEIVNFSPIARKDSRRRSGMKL
As to the kind of experiment: Selectivity interaction (KinomeScan (DiscoverX)) EUB0000229b MAPK13. The note with it: at 10 µM.

Experiment [12] deals with T3, Tyrosine-protein kinase JAK3 (Homo sapiens) (UniProt P52333).
T3 sequence (whole entry): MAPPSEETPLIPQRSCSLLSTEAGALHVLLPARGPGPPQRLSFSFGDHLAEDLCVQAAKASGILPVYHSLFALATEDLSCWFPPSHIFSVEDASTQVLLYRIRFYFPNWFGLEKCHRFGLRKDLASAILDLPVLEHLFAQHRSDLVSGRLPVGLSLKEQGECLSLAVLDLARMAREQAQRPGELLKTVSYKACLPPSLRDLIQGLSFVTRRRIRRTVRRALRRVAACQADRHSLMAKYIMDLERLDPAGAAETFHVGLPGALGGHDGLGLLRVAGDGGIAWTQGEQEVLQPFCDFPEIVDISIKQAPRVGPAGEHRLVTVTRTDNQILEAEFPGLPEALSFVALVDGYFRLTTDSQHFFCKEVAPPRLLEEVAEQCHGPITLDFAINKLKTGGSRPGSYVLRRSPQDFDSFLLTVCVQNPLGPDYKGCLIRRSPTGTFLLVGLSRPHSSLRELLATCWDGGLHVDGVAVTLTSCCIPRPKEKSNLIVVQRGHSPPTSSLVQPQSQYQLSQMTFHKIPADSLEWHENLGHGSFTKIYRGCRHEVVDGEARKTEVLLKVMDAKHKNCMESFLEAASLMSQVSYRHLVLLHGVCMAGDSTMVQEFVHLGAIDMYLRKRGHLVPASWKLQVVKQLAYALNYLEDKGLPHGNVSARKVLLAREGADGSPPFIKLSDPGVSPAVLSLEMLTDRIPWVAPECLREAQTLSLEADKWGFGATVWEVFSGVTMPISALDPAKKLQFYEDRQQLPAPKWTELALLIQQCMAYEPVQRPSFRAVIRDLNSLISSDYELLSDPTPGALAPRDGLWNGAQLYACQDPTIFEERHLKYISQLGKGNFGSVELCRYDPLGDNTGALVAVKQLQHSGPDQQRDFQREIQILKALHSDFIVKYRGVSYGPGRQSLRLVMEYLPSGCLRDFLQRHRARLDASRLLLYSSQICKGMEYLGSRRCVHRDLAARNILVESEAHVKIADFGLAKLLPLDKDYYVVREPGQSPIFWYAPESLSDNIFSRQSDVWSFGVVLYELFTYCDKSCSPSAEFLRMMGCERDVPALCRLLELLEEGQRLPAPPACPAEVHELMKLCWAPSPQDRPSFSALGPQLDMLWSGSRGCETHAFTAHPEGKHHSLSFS
Description: Selectivity interaction (ActivX KiNativ screen (ex vivo kinase selectivity in human PBMCs)) EUB0001619a JAK3. In kind it is cell-based. The note with it: PBMC, at 1 µM.

Cyclin-dependent kinase 5/CDK5 activator 1 (Homo sapiens), sequence (Q00535 whole entry): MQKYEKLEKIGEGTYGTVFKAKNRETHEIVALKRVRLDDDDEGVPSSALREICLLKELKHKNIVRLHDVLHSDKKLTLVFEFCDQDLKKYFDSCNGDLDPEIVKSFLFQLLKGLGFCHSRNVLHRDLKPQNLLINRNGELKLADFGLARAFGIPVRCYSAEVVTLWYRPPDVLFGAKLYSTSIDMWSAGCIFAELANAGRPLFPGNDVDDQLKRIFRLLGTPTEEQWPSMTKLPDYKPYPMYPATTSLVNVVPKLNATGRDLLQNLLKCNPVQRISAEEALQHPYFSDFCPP
Cyclin-dependent kinase 5/CDK5 activator 1 (Homo sapiens), sequence (Q15078 99-307 partner limits assumed): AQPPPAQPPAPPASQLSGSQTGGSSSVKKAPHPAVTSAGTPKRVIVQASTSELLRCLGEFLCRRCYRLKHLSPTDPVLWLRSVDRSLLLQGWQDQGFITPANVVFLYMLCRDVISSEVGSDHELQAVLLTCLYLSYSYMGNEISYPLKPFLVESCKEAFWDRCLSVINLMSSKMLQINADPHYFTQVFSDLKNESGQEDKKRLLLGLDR
Phosphatidylinositol 4-kinase beta, sequence (Q9UBF8 whole entry): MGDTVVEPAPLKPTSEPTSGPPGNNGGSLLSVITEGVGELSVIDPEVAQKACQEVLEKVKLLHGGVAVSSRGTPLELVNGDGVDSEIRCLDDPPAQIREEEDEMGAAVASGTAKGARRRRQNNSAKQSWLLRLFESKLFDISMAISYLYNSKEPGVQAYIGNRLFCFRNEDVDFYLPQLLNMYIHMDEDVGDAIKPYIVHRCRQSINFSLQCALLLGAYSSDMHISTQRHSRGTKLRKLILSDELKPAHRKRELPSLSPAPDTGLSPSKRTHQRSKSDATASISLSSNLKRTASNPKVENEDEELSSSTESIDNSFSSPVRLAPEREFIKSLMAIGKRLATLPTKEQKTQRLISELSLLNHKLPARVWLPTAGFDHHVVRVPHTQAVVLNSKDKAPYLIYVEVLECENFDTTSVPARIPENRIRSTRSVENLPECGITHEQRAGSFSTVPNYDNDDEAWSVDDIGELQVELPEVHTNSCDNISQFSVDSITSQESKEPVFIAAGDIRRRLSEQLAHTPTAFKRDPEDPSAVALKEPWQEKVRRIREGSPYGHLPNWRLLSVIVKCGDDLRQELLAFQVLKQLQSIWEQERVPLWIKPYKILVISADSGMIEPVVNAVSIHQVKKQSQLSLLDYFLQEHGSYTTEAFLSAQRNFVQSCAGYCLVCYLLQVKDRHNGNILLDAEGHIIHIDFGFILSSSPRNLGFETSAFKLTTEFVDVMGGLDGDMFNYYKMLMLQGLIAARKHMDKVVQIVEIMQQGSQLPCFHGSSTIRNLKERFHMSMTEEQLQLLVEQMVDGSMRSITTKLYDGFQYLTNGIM
Protein polybromo-1 (Homo sapiens), sequence (Q86U86 whole entry): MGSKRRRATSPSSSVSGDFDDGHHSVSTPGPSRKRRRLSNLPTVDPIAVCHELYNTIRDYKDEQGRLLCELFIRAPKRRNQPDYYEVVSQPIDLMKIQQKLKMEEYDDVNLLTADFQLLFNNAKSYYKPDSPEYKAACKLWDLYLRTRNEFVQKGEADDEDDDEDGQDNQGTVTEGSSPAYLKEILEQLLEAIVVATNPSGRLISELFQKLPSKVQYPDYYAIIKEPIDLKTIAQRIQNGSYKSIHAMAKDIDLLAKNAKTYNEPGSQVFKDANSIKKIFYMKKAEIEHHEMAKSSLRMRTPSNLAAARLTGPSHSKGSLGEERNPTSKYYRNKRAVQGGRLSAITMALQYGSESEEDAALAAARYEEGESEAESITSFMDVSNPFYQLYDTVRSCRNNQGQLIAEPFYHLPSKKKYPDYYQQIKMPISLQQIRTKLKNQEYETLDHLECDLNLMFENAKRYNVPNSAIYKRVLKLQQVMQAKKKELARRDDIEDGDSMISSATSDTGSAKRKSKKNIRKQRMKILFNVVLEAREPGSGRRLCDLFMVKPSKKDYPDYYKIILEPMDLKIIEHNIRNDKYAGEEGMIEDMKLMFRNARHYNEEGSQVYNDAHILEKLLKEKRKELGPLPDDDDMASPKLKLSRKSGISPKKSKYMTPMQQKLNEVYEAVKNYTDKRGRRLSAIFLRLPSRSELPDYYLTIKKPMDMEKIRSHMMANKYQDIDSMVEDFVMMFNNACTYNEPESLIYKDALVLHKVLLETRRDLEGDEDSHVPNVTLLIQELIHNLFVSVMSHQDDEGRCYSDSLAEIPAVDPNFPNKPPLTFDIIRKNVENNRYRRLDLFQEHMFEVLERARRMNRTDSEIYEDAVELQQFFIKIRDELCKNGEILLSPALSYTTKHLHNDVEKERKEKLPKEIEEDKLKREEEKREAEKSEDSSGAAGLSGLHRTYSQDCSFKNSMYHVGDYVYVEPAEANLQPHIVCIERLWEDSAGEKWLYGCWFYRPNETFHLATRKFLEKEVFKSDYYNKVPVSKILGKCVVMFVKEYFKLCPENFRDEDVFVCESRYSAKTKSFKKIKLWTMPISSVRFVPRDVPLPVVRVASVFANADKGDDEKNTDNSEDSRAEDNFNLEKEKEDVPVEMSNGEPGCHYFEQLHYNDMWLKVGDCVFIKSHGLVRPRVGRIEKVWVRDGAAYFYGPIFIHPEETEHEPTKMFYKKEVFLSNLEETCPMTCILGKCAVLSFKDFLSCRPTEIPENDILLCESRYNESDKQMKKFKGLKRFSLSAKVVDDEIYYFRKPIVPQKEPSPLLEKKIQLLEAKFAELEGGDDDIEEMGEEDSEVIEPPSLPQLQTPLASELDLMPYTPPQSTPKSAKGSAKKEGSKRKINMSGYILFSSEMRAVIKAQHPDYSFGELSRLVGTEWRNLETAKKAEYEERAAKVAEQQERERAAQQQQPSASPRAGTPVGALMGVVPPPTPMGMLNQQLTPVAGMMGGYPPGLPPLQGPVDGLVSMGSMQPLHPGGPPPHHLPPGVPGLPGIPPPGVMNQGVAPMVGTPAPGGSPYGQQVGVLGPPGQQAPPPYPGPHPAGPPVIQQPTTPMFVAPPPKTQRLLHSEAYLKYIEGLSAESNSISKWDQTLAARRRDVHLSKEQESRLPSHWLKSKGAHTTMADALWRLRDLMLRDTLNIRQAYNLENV

For orientation: IC50 means the concentration needed to halve the response being measured. In experiment [1], `Cc1cc([C@@H](C)Nc2ccccc2C(=O)O)c2nc(N3CCOCC3)cc(=O)n2c1` [AZD-6482] showed a concentration for half-maximal inhibition (IC50) of 10 nM. Further, the % of control in experiment [2] was found to be 98%.

Regarding `CCN(CC)CCCCNc1ncc2cc(-c3cc(OC)cc(OC)c3)c(NC(=O)NC(C)(C)C)nc2n1`, the % of control in experiment [3] was 100%. As for `COc1cc(Nc2nc(C)cc(-c3cnn4nc(OC)ccc34)n2)cc(C(F)(F)F)c1`, the % of control in experiment [4] and in [5] was 100% throughout. As for `CN(C)CCOc1ccc(-c2nc(-c3ccncc3)c(-c3ccc4c(c3)CC/C4=N\O)[nH]2)cc1`, the % of control in [6] came out at 93%. Turning to `Cc1cc(CN)cc(C)c1-c1ncn(C)c1-c1cncn1C`, the dTM in experiment [7] was -1.53 K.

With `Cn1cc(-n2cnc3c(NCc4nc5cc(Cl)c(Cl)cc5[nH]4)nc(N4CCOCC4)nc32)cn1`, the % of inhibition in experiment [8] is -151%. The compound also displayed a % of control in experiment [9] of 3.1%. As for `CNC(=O)Nc1ccc(-c2nc(N3CC4CCC(C3)O4)c3cnn(C4CCC5(CC4)OCCO5)c3n2)cc1`, in experiment [10], the % of control was determined as 80%. In experiment [11], `COc1cc(N(C)c2ccnc3ccc(C(F)(F)F)cc23)cc(OC)c1OC` registered a % binding of 78%.

Take `N#Cc1cccc(-c2c[nH]c3ncnc(N4CCOCC4)c23)c1`: the % of inhibition in experiment [12] came out at 7%.
